Data: PMC9628480, “Discovery and structural characterization of chicoric acid as a SARS-CoV-2 nucleocapsid protein ligand and RNA binding disruptor” (Scientific Reports, 2022)
Where “and” joins values, the source holds several entries; their conditions need not be identical. Equal entries are not always repeated. Where two headings read alike, the source gives them in different places. Numbered stars: 1 amine (or outer) side, 2 acyl side, 3 side chain; on linkers, the order of the positions; unused ones are H or OH. Bridge positions count the residues as written; N and C are the ends. Square brackets hold non-standard residues; d marks the D form. Peptide text beside a SMILES is read from it. * marks the point of attachment. hTyr(3S-OH,4S-OH,3'-OSO3H) = N[C@H](C(=O)O)[C@H](O)[C@@H](O)c1ccc(O)c(OS(=O)(=O)O)c1; Orn(4R-OH,5R-OH) = O=C([C@H](C[C@@H](O)[C@@H](O)N[*:3])N[*:1])[*:2]; Pro(3S-OH,4S-Me) = C[C@H]1CN[C@H](C(=O)O)[C@H]1O; X1 = CCCCCOc1ccc(-c2cc(-c3ccc(C(=O)*)cc3)no2)cc1; Gln(3R-OH) = NC(=O)C[C@@H](O)[C@H](N)C(=O)O; X2 = CC(C)CCCCCCCCC[C@H](CC(=O)[*:1])O[*:2]; Hyp = O=C(O)[C@@H]1C[C@@H](O)CN1

Columns and labels:
[1] = target: T1, SARS-CoV-2 N protein-RNA1 interaction (Severe acute respiratory syndrome coronavirus 2, UniProt P0DTC9); test: biochemical; format: binding; settings: for loss in IC50 values in comparison to CA: single carboxylate at C1 versus CA
T1 construct: made in house; host or cells: Escherichia coli BL21 (DE3)

SARS-CoV-2 particles = test: Virucidal assay in Vero CCL-81 cells; format: cell-based; settings: particles incubated with CA 25 or 100 µM for 1 h
SARS-CoV-2 [2] = test: SARS-CoV-2 replication assay in Vero CCL81 cells (plaque assay); format: cell-based
SARS-CoV-2 [3] = test: SARS-CoV-2 replication assay in Calu-3 cells (plaque assay); format: cell-based
multiple human viruses = settings: cited from earlier work
[4] = target: T2, SARS-CoV-2 N protein (full-length) (Severe acute respiratory syndrome coronavirus 2, UniProt P0DTC9); test: DLS aggregation assay of N protein; settings: compound 20 µM, two-fold molar excess
T2 construct: made in house; host or cells: Escherichia coli BL21 (DE3)
Procedure: Aggregation assays were performed with the full-length N protein diluted to 10 µM in 50 mM sodium phosphate buffer, 100 mM NaCl (pH, 7.6), with subsequent addition of 20 µM of each test compounds or 1% DMSO used as diluent. […] Samples were evaluated by DLS in a ZetaSizer NanoS (Malvern) equipment, at 10 °C, using default parameters set by the equipment.

N protein-RNA1 complex = target: T3, N protein-RNA1 complex (Severe acute respiratory syndrome coronavirus 2, UniProt P0DTC9); format: binding, SARS-CoV-2; settings: protein:compound 1:2 ratio
T3 construct: made in house; host or cells: Escherichia coli BL21 (DE3)

[5] = target: T1, SARS-CoV-2 N protein-RNA1 interaction; test: Primary FP HTS at 20 µM compound; format: binding; settings: compound 20 µM
SARS-CoV-2 [6] = settings: cited from earlier work
[7] = IC50 for blocking the N protein-RNA1 interaction
[8] = read-out: IC50 for blocking the N protein-RNA1 interaction

Compound: O=C(O)c1cc(O)c(O)c(O)c1 [Gallic acid]
- IC50 [1, 7]: 23.3 µM

Compound: COc1ccc2c(O[C@@H]3C[C@H]4C(=O)N[C@]5(C(=O)NS(=O)(=O)C6CC6)C[C@H]5/C=C\CCCCN(C)C(=O)[C@@H]4C3)cc(-c3nc(C(C)C)cs3)nc2c1C [Simeprevir]
- IC50 [1, 7]: 16.5 µM

Compound: COc1cc(C(=O)O)ccc1NC(=O)[C@@H]1N[C@@H](CC(C)(C)C)[C@](C#N)(c2ccc(Cl)cc2F)[C@H]1c1cccc(Cl)c1F [Idasanutlin]
- IC50 [1, 7]: 6.5 µM

Compound: L-Chicoric acid
- virucidal activity against SARS-CoV-2 (SARS-CoV-2 particles): slight virucidal activity
- antiviral activity at 25 and 100 µM (SARS-CoV-2 [2]): antiviral activity at 100 µM only
- reduction in infectious viral load (SARS-CoV-2 [2]): tenfold
- antiviral activity at 25 and 100 µM (SARS-CoV-2 [3]): antiviral activity at 100 µM only
- reduction in infectious viral load (SARS-CoV-2 [3]): 100 fold

Compound: C[C@@H]1NC(=O)[C@@H]2CCCN2C(=O)[C@H](CC(N)=O)NC(=O)[C@@H]2CSSC[C@H](N)C(=O)N[C@H]3CSSC[C@H](NC1=O)C(=O)N[C@@H]([C@@H](C)O)C(=O)NCC(=O)N[C@H](C(=O)N[C@@H](Cc1ccc(O)cc1)C(=O)O)CSSC[C@H](NC(=O)[C@H](Cc1ccc(O)cc1)NC(=O)[C@H](CCC(=O)O)NC3=O)C(=O)N2 [Linaclotide] (H-CCEYCCNPACTGCY-OH; disulfide 1-6, 2-10, 5-13)
- IC50 [1, 7]: 5.5 µM

Compound: O=C(O)C[C@@H]1C(=O)O[C@H]2[C@H](OC(=O)c3cc(O)c(O)c(O)c3)[C@@H](OC(=O)c3cc(O)c(O)c4c3[C@H]1[C@H](O)C(=O)O4)[C@H](OC(=O)c1cc(O)c(O)c(O)c1)O[C@@H]2COC(=O)c1cc(O)c(O)c(O)c1 [Chebulinic acid]
- in vitro antiviral potencies (multiple human viruses): low micromolar range

Compound: CCCCCCCCCCCC1=C(O)C(=O)C=C(O)C1=O [Embelin]
- IC50 [1, 7]: 5 µM

Compound: Cc1cc(/C=C(\C#N)C(=O)Nc2cccc(Br)c2)c(C)n1-c1ccc(C(=O)O)cc1 [RNPA1000]
- IC50 [1, 8]: 9.6 µM

Compound: Tannic acid
- IC50 [1, 8]: 1.4 µM

Compound: O=C1O[C@H]2[C@@H]3OC(=O)c4cc(O)c(O)c(O)c4-c4c(O)c(O)c5oc(=O)c6c(c(O)c(O)c7oc(=O)c4c5c76)-c4c(cc(O)c(O)c4O)C(=O)OC[C@H]3OC(O)[C@@H]2OC(=O)c2cc(O)c(O)c(O)c2-c2c1cc(O)c(O)c2O (mixture of isomers) [Punicalagin]
- IC50 [1, 7]: 0.7 µM
- effect on hydrodynamic radius (Rh) / oligomeric state of the N protein (DLS) [4]: appears to cause N protein aggregation
- binding affinity of the N protein to RNA1 in the presence of compound (N protein-RNA1 complex): significantly reduced
- in vitro antiviral potencies (multiple human viruses): low micromolar range

Compound: O=C(NCc1ccc(Oc2ccccc2)cc1)c1nc(-c2cc(Br)c(O)c(Br)c2)no1 [IOWH-032]
- IC50 [1, 8]: 7.7 µM

Compound: O=C(O[C@@H]1O[C@@H]2COC(=O)c3cc(O)c(O)c(O)c3-c3c(cc(O)c(O)c3O)C(=O)O[C@H]([C@H]1O)[C@@H]2O)c1cc(O)c(O)c(O)c1 [Corilagin]
- IC50 [1, 7]: 2.4 µM

Compound: CC1=NN(c2ccc(C)c(C)c2)C(=O)/C1=N\Nc1cccc(-c2cccc(C(=O)O)c2)c1O [Eltrombopag]
- IC50 [1, 7]: 7.1 µM and 8.1 µM

Compound: COc1ccc2c(c1)C=C1Cn3c-2c(C2CCCCC2)c2ccc(cc23)C(=O)NS(=O)(=O)N(C)CCOCCN(C)C1=O [TMC647055]
- IC50 [1, 7]: 10 µM

Compound: O=S(=O)(O)c1ccc(N=C2C=CC(=C(c3ccc(Nc4ccc(S(=O)(=O)O)cc4)cc3)c3ccc(Nc4ccc(S(=O)(=O)O)cc4)cc3)C=C2)cc1 [Methyl Blue]
- IC50 [1, 8]: 4.2 µM

Compound: CCCCCCO[C@@H](C)c1cccc(-c2csc(NC(=O)c3cc(Cl)c(/C=C(\C)C(=O)O)c(Cl)c3)n2)c1OC [Lusutrombopag]
- IC50 [1, 7]: 6 µM

Compound: Cc1ccnc(NS(=O)(=O)c2ccc(N)cc2)n1 [Sulfamerazine]
- IC50 [1, 7]: 6.5 µM

Compound: O=c1ccc2[n+]([O-])c3ccc(O)cc3oc-2c1 [Resazurin]
- IC50 [1, 7]: 10.5 µM

Compound: CC(C)CCCCCCCCC[C@@H]1CC(=O)N[C@@H](CCC(=O)O)C(=O)N[C@@H](CC(C)C)C(=O)N[C@H](CC(C)C)C(=O)N[C@@H](C(C)C)C(=O)N[C@@H](CC(=O)O)C(=O)N[C@H](CC(C)C)C(=O)N[C@@H](CC(C)C)C(=O)O1 [Surfactin] (EL[dL]VD[dL]L; linker N-C via X2)
- IC50 [1, 7]: 11.1 µM

Compound: CN(Cc1ccc(C(C)(C)C)cc1)Cc1cccc2ccccc12 [Butenafine]
- IC50 [1, 7]: 15.7 µM

Compound: Cc1cc2c(C(C)C)c(O)c(O)c(C=O)c2c(O)c1-c1c(C)cc2c(C(C)C)c(O)c(O)c(C=O)c2c1O [Gossypol acetic acid]
- IC50 [1, 7]: 7.1 µM

Compound: O=C(/C=C/c1ccc(O)c(O)c1)O[C@H](Cc1ccc(O)c(O)c1)C(=O)O [rosmarinic acid]
- N protein-RNA1 disruption [5]: low

Compound: Verteporfin
- IC50 [1, 8]: 10.8 µM

Compound: O=C(/C=C/c1ccc(O)c(O)c1)O[C@@H]1CC(O)(C(=O)O)C[C@@H](OC(=O)/C=C/c2ccc(O)c(O)c2)C1O (some centres unmarked) [Isochlorogenic acid A, 3,5-dicaffeoylquinic acid]
- IC50 [1, 8]: 5.5 µM
- loss in IC50 values in comparison to CA [1]: ~ 10 fold

Compound: C[C@@H](O)[C@H]1C(=O)N2C(C(=O)O)=C(S[C@@H]3CN[C@H](C(=O)Nc4cccc(C(=O)O)c4)C3)[C@H](C)[C@H]12 [Ertapenem sodium]
- IC50 [1, 8]: 13.8 µM

Compound: Cc1cc2c(C(C)C)c(O)c(O)c(C=O)c2c(O)c1-c1c(C)cc2c(C(C)C)c(O)c(O)c(C=O)c2c1O [(R)-(-)-Gossypol acetic acid]
- IC50 [1, 8]: 6.4 µM

Compound: Oc1c(Cl)cc(Cl)cc1Sc1cc(Cl)cc(Cl)c1O [Bithionol]
- IC50 [1, 7]: 23 µM

Compound: CCCCCCCCCCCCCCCc1cccc(O)c1C(=O)O [Anacardic Acid]
- IC50 [1, 8]: 7.7 µM

Compound: Oc1c(Cl)cc(Cl)c(Cl)c1Cc1c(O)c(Cl)cc(Cl)c1Cl [Hexachlorophene]
- IC50 [1, 7]: 13 µM

Compound: COc1ccc2cc(-c3cc(-c4cc(Cl)cc(Cl)c4)nn3[C@@H](C)c3ccc(C(=O)NCCC(=O)O)cc3)ccc2c1 [MK 0893]
- IC50 [1, 7]: 14.4 µM

Compound: CCCCCOc1ccc(-c2cc(-c3ccc(C(=O)N[C@H]4C[C@@H](O)[C@@H](O)NC(=O)[C@@H]5[C@@H](O)[C@@H](C)CN5C(=O)[C@H]([C@H](O)CC(N)=O)NC(=O)[C@H]([C@H](O)[C@@H](O)c5ccc(O)c(OS(=O)(=O)O)c5)NC(=O)[C@@H]5C[C@@H](O)CN5C(=O)[C@H]([C@@H](C)O)NC4=O)cc3)no2)cc1 [Micafungin] (X1-[Orn(4R-OH,5R-OH)]T[Hyp][hTyr(3S-OH,4S-OH,3'-OSO3H)][Gln(3R-OH)][Pro(3S-OH,4S-Me)]; lactam 1-C)
- IC50 [1, 7]: 10.4 µM

Compound: O=C(OC[C@H]1O[C@@H](OC(=O)c2cc(O)c(O)c(O)c2)[C@H](OC(=O)c2cc(O)c(O)c(O)c2)[C@@H](OC(=O)c2cc(O)c(O)c(O)c2)[C@@H]1OC(=O)c1cc(O)c(O)c(O)c1)c1cc(O)c(O)c(O)c1 [Pentagalloylglucose]
- IC50 [1, 7]: 11.6 µM

Compound: CCCCCCCC/C=C\CCCCCCCC(=O)O [Oleic acid]
- IC50 [1, 7]: 15.7 µM

Compound: CC(C)=CCOc1ccc(/C=C/C(=O)c2ccc(OCC=C(C)C)cc2OCC(=O)O)cc1 [Sofalcone]
- IC50 [1, 7]: 18.5 µM

Compound: Cc1ccc(C(=O)Nc2ccc(S(=O)(=O)O)c3cc(S(=O)(=O)O)cc(S(=O)(=O)O)c23)cc1NC(=O)c1cccc(NC(=O)Nc2cccc(C(=O)Nc3cc(C(=O)Nc4ccc(S(=O)(=O)O)c5cc(S(=O)(=O)O)cc(S(=O)(=O)O)c45)ccc3C)c2)c1 [Suramin]
- concentration reported to inhibit SARS-CoV-2 infection in cell culture (SARS-CoV-2 [6]): 20 µM
- IC50 [1, 7]: 0.8 µM

Compound: O=C(Nc1cccc2c(=O)cc(-c3nnn[nH]3)oc12)c1ccc(OCCCCc2ccccc2)cc1 [Pranlukast (hemihydrate), Pranlukast]
- IC50 [1, 7]: 7.8 µM

Compound: COc1cc(C(=O)NS(=O)(=O)c2ccccc2C)ccc1Cc1cn(C)c2ccc(NC(=O)OC3CCCC3)cc12 [Zafirlukast]
- IC50 [1, 7]: 10.4 µM

Compound: C[C@@H]1O[C@@H](O[C@@H]2[C@@H](O)[C@H](OCCc3ccc(O)c(O)c3)O[C@H](CO)[C@H]2OC(=O)/C=C/c2ccc(O)c(O)c2)[C@H](O)[C@H](O)[C@H]1O [verbascoside]
- N protein-RNA1 disruption [5]: low

Compound: O=C(O)c1cc(O)c2c(c1)[C@H]([C@H]1c3cc(C(=O)O)cc(O)c3C(=O)c3c(O[C@@H]4O[C@H](CO)[C@@H](O)[C@H](O)[C@H]4O)cccc31)c1cccc(O[C@@H]3O[C@H](CO)[C@@H](O)[C@H](O)[C@H]3O)c1C2=O [Sennoside A]
- IC50 [1, 7]: 5.7 µM

Compound: CC(C)(Sc1cc(C(C)(C)C)c(O)c(C(C)(C)C)c1)Sc1cc(C(C)(C)C)c(OC(=O)CCC(=O)O)c(C(C)(C)C)c1 [Succinobucol]
- IC50 [1, 7]: 8.1 µM

Compound: O=C1OC[C@H]2OC(O)[C@H](O)[C@@H](O)[C@@H]2OC(=O)c2cc(O)c(O)c(O)c2-c2c(O)c(O)c3oc(=O)c4c(c(O)c(O)c5oc(=O)c2c3c54)-c2c1cc(O)c(O)c2O (mixture of isomers) [Punicalin]
- IC50 [1, 7]: 0.7 µM
- in vitro antiviral potencies (multiple human viruses): low micromolar range

Compound: O=C(/C=C/c1ccc(O)c(O)c1)O[C@H]1[C@H](O)C[C@](O)(C(=O)O)C[C@H]1OC(=O)/C=C/c1ccc(O)c(O)c1 [4,5-Dicaffeoylquinic acid]
- IC50 [1, 8]: 3 µM
- loss in IC50 values in comparison to CA [1]: ~ 10 fold
